Several values for one entry are separate records, joined by “and”; a condition that tells them apart may be missing. Equal entries are not always repeated.
Target: T1, biotinylated HRP (Armoracia rusticana, UniProt P00433)
T1 construct: purchased Roche Diagnostics, Indianapolis, Ind., USA
T1 sequence (P00433 31-338 limits assumed): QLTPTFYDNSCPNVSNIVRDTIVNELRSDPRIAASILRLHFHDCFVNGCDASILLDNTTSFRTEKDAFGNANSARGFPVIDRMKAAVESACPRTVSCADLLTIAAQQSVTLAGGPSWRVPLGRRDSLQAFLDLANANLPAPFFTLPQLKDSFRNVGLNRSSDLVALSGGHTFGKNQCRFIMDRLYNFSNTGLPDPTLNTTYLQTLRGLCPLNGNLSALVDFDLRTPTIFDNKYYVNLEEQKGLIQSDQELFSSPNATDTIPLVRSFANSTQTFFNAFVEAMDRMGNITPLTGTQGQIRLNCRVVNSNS
Test: Model system for selection of SSIA (M280 btn-BSA-AK1-streptavidin particles + Btn-HRP:HRP)
Type: biochemical

In the case of `O=C1O[C@H]([C@@H](O)CO)C(O)=C1O` [Ascorbic Acid, Ascorbic acid], the S/S0 (Btn-HRP 0 ng/mL vs 0, SSIA 100 μM) is reported as 1, the B-HRP0 light intensity (Btn-HRP 0 ng/mL, total HRP 500 ng/mL, SSIA final 100 μM) is reported as 151 and 97 and the S1/S0 (Btn-HRP 1 ng/mL vs 0, SSIA 100 μM) is reported as 6.6 and 7.8. The B-HRP1 light intensity (Btn-HRP 1 ng/mL, total HRP 500 ng/mL, SSIA final 100 μM) was 995 and 757, the S2/S0 (Btn-HRP 10 ng/mL vs 0, SSIA 100 μM) was 216.2 and 171.6 and the B-HRP10 light intensity (Btn-HRP 10 ng/mL, total HRP 500 ng/mL, SSIA final 100 μM) was 32,568 and 16,641. For the same molecule, the S3/S0 (Btn-HRP 100 ng/mL vs 0, SSIA 100 μM) was 30222.2 and 38064.9, the B-HRP100 light intensity (Btn-HRP 100 ng/mL, total HRP 500 ng/mL, SSIA final 100 μM) was 4,553,473 and 3,692,291 and the S4/S0 (Btn-HRP 250 ng/mL vs 0, SSIA 100 μM) was 59176.1 and 62228.3. For the same molecule, the B-HRP250 light intensity (Btn-HRP 250 ng/mL, total HRP 500 ng/mL, SSIA final 100 μM) was 8,915,869 and 6,036,145 and the “effect in the model system / utility as SSIA” value (SSIA 100 μM, conclusion in words) was “demonstrating utility as SSIA”.

Source: US20100273189A1, “NON SEPARATION ASSAYS WITH SELECTIVE SIGNAL INHIBITORS” (BECKMAN COULTER, INC., priority 2009, published 2010)
